Active and inactive are the calls of the source.
Experiments:
[1] = viability loss of HPDE-C7K cells – cell-based, fluorescence, HTS, primary screen (AID 431); assay type: functional; conditions: Homo sapiens
[2] = HPDE-C7 pancreatic duct cell viability loss – fluorescence, HTS (AID 430); assay type: functional, cell-based; conditions: Homo sapiens
Cytochrome P450 2C19 = Cytochrome P450 2C19 (Homo sapiens, UniProt P33261); assay: Cytochrome panel assay with activity outcomes. Panel member name: p450-cyp2c19 Compounds with AC50 equal or less than 10 uM are considered active; assay type: functional; conditions: read-out: AC50
Cytochrome P450 3A4 = Cytochrome P450 3A4 (Homo sapiens, UniProt P08684);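 also: CYP3A4 tested as one member of a cytochrome P450 panel screen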
Cytochrome P450 2C9 = Cytochrome P450 2C9 (Homo sapiens, UniProt P11712)
[3] = biological target: T1, Mannose-6-phosphate isomerase (Homo sapiens, UniProt P34949); assay: MPI inhibition at elevated mannose 6-phosphate – biochemical, fluorescence intensity, high mannose 6-phosphate, primary screen (AID 1220)
T1 sequence (P34949 whole entry): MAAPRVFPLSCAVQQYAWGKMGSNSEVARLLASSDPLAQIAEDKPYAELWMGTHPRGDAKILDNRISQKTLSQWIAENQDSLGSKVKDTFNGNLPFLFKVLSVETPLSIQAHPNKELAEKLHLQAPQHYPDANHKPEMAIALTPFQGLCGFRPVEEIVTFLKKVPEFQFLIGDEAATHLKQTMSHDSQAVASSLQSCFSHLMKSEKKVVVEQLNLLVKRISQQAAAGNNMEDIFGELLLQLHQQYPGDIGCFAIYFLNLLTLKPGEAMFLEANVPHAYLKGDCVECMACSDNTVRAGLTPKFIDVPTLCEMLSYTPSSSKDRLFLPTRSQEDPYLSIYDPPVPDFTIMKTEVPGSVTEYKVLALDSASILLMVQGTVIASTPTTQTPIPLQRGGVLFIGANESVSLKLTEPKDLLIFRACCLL

[4] = biological target: Luciferin 4-monooxygenase (Photinus pyralis, UniProt P08659); assay: inhibition of purified Photinus pyralis luciferase – biochemical, luminescence, dose response (AID 1891)
[5] = A Cell Based Secondary Assay To Explore Cytotoxicity of Compounds that Sensitize Mycobacterium Tuberculosis to Beta-Lactam Antibiotics.; assay type: functional
Bcl-2-related protein A1 [6] = biological target: T2, Bcl-2-related protein A1 (Mus musculus, UniProt Q07440); assay: Bfl-1 binding inhibitors, SAR follow-up, biochemical, fluorescence polarization (AID 1070)
T2 sequence (Q07440 whole entry): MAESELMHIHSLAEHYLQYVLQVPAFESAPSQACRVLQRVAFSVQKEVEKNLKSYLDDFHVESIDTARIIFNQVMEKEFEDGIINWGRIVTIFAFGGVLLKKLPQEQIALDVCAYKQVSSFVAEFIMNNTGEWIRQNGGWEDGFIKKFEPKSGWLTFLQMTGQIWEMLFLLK

Bcl-2-related protein A1 [7] = biological target: T2, Bcl-2-related protein A1; assay: small-molecule antagonists of Bfl-1/BH3 interaction – biochemical, TR-FRET, mouse Bfl-1, confirmation (AID 621);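 also: TR-FRET binding of GST-Bfl-1 to FITC-labelled Bid peptide via terbium antibody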
[8] = biological target: Glyceraldehyde-3-phosphate dehydrogenase (Homo sapiens, UniProt P04406)
[9] = viability loss in CEM21 cells – cell-based, CellTiter-Glo luminescence, cherry-picked, cytotoxicity control for viral fusion inhibitor project, dose response (AID 652042); assay type: functional;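 also: potency for signal decrease meaning cytotoxicity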
[10] = viability of HCT116 lacking mutant beta-catenin – cell-based, human colon tumor, dose response (AID 1045); assay type: functional;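 also: HCT116 colon tumor cells with beta catenin knocked out; cells exposed to compound for 60 hours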
[11] = viability of PTEN-deleted HCT116 cells – cell-based, HCT116 PTEN knockout, dose response (AID 1047); assay type: functional;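 also: HCT116 colon tumor cells with PTEN knocked out; cells exposed to compound for 60 hours before readout; potency for loss of cell viability measured by luminescence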
[12] = HIV-1 AD8 envelope cell-cell fusion blockers – cherry-pick, dose response (AID 652062); assay type: functional, cell-based;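 also: luciferase signal from cell-cell fusion driven by HIV-1 clade B AD8 Env; potency is for inhibitors of fusion seen as a drop in luminescence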
[13] = off-target signal loss in HeLa-CEM21 co-culture – HeLa F-luc CTL cells, cherry-picked, counter-screen for HIV-1 Env fusion inhibitor project, dose response (AID 652040); assay type: functional, cell-based;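 also: potency for signal decrease marking cytotoxic or nonspecific inhibition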
[14] = blockers of HIV-1 ZM109 envelope-driven cell-cell fusion – HeLa effector, CEM target cells, luciferase, cherry-pick, dose response (AID 652058); assay type: functional, cell-based;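 also: luciferase signal from HIV-1 Env mediated cell-cell fusion of effector and target cells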
[15] = biological target: Ras and Rab interactor 1/Tyrosine-protein kinase ABL1 (Homo sapiens, UniProt P00519+Q13671); assay type: functional;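 also: biochemical TR-FRET dose-response test measuring inhibition of binding between Rin1 and Abl proteins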
cells = assay type: functional
[16] = viability loss in Vero cells – cytotoxicity control for Vif-APOBEC3G degradation inhibitor project, dose response (AID 1117358); assay type: functional; conditions: Vero
[17] = activation of miR-122 Renilla sensor silencing – cell-based, Huh7 psiCHECK-miR122, Renilla luciferase, cherry-picked, dose response (AID 651956); assay type: functional;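 also: huh7 hepatoma cells stably carrying a psiCHECK-2 miR-122 sensor plasmid; renilla luciferase signal reporting endogenous miR-122 activity after 48 h compound exposure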
[18] = P. falciparum Dd2 growth inhibitors, dose response, SYBR Green, cherry-picked samples (AID 1159567); assay type: functional, cell-based
[19] = toxicity to human hepatoma HepG2 cells – cell-based, cherry-picked samples, cytotoxicity control, dose response (AID 1159577); assay type: functional
[20] = blockers of bursicon-stimulated LGR2 cAMP reporter – cell-based, HEK293, CRE-luciferase reporter, cherry pick, set 2, dose response (AID 743343); assay type: functional;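 also: transfected cells were stimulated with diluted bursicon conditioned medium after compound addition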
[21] = blockade of melanocortin 4 receptor signaling – cell-based, plate reader, cherry pick, counter-screen for LGR2 antagonist project, dose response (AID 743444); assay type: functional;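 also: transfected HEK 293 cells stimulated with alpha-MSH peptide; potency of inhibitors of the alpha-MSH evoked signal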
[22] = blockers of HIV-1 envelope-mediated cell-cell fusion – cherry-pick, dose response (AID 652057); assay type: functional, cell-based

Chain of Cytochrome P450 3A4 (P08684 whole entry): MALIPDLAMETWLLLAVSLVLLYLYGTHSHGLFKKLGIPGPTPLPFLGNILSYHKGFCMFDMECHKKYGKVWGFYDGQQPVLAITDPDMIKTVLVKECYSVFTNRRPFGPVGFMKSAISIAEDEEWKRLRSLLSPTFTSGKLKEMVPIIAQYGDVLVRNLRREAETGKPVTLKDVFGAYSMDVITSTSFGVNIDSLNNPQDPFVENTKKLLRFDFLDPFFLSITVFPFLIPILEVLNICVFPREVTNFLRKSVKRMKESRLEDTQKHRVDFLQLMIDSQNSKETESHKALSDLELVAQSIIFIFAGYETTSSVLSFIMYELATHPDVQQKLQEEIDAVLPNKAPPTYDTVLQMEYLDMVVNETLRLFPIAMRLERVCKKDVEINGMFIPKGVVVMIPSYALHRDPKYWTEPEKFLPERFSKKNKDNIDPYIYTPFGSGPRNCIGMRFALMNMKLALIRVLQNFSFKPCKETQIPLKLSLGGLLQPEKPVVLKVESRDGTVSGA
Chain of Ras and Rab interactor 1/Tyrosine-protein kinase ABL1 (P00519 whole entry): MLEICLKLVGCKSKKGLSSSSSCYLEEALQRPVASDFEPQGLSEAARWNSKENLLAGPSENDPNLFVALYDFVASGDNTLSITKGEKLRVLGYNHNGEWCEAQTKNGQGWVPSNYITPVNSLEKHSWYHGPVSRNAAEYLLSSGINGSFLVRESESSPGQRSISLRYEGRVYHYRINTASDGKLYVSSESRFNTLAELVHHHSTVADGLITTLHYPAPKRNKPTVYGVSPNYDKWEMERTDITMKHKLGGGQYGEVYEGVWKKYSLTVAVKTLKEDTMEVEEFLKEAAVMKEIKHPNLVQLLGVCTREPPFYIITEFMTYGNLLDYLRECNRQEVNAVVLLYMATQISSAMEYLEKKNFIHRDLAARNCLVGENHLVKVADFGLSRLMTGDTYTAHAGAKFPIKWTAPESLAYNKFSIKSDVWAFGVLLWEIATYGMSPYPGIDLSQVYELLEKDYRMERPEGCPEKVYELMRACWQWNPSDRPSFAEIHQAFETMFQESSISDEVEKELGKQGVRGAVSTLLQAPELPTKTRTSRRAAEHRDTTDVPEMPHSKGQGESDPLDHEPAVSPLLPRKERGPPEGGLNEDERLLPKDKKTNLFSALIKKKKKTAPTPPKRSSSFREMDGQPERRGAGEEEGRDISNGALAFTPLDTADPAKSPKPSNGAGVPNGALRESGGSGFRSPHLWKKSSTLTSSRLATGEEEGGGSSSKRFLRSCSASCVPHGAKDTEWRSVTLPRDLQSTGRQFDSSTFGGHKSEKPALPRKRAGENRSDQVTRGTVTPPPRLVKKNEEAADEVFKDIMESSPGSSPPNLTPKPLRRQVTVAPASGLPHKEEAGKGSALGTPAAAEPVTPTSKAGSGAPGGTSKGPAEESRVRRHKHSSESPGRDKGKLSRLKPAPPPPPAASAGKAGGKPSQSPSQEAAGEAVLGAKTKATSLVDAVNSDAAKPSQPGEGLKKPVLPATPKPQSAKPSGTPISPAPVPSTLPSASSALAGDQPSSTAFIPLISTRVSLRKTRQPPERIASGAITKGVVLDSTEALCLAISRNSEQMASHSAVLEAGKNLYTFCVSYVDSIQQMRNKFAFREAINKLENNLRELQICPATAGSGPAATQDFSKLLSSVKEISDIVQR
Chain of Ras and Rab interactor 1/Tyrosine-protein kinase ABL1 (Q13671 whole entry): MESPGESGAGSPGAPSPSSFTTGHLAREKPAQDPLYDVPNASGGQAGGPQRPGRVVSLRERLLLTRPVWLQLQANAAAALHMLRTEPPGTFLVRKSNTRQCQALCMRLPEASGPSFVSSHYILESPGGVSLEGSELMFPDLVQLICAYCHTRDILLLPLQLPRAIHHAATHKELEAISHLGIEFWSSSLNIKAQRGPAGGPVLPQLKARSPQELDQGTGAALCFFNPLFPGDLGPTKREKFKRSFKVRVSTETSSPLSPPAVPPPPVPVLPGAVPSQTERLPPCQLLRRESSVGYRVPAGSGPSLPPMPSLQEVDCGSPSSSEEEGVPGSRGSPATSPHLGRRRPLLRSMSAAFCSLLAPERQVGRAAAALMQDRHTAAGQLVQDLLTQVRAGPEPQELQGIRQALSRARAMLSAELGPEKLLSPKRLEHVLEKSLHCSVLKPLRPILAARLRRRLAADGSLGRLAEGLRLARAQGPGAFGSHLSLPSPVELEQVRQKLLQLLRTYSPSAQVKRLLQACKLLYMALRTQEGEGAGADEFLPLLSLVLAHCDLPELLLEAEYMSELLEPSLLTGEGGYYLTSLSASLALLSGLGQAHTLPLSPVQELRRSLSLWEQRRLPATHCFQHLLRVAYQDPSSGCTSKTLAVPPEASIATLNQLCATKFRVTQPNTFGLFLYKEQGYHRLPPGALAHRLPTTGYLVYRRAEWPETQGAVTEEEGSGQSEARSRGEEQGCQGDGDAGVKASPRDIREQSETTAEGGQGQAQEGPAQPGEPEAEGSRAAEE
Chain of Cytochrome P450 2C9 (P11712 whole entry): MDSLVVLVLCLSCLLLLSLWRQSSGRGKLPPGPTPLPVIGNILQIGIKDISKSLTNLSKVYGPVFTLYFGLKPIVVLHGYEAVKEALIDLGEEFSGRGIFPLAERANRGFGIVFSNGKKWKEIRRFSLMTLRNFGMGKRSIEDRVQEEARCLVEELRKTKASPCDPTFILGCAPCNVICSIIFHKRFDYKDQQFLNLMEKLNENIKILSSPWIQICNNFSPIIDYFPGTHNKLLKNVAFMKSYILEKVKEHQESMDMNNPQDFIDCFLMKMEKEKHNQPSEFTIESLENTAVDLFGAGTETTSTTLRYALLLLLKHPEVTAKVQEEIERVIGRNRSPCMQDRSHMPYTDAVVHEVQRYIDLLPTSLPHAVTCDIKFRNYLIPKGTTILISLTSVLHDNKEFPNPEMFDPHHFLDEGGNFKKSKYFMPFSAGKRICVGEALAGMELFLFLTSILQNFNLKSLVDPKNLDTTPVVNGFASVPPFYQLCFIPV
Chain of Cytochrome P450 2C19 (P33261 whole entry): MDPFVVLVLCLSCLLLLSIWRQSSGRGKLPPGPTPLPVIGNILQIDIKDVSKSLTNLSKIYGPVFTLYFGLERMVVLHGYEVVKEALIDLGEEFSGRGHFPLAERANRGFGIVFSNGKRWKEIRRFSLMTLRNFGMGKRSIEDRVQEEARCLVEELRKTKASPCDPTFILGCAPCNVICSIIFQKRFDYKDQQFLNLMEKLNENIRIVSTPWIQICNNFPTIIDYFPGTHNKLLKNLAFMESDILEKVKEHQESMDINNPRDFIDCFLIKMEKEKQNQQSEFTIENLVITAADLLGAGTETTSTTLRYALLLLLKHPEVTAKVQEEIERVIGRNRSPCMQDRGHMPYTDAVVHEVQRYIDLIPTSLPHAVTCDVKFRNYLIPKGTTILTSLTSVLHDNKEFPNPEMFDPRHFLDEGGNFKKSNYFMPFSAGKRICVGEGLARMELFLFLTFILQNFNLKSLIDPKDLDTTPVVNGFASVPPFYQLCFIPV
Chain of Glyceraldehyde-3-phosphate dehydrogenase (P04406 whole entry, the tested form may be a part): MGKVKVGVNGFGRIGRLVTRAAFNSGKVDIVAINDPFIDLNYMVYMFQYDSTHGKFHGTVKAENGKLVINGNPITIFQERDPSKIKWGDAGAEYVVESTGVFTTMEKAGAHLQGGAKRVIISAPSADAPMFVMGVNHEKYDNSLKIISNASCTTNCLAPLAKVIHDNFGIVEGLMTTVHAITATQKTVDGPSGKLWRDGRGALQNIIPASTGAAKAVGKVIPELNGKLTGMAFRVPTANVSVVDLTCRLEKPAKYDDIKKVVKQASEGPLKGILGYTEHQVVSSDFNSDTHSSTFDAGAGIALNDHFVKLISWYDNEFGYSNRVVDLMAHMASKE
Chain of Luciferin 4-monooxygenase (P08659 whole entry): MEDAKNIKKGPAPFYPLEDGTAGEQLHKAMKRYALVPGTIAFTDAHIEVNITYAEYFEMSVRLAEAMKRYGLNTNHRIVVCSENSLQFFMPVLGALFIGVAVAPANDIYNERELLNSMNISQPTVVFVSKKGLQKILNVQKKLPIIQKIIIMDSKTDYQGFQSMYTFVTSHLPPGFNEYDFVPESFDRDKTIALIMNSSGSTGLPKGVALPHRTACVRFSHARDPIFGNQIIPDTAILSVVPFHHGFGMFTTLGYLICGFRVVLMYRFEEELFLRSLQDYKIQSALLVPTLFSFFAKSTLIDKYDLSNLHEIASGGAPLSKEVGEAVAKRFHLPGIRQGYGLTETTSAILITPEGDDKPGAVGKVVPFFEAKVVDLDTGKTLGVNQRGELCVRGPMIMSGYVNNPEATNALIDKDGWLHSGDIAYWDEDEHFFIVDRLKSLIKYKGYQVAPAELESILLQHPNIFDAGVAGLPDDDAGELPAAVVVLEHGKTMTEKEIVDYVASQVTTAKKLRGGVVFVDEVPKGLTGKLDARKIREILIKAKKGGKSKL

SMILES: N#CC1=C(N)NC(SCc2ccc(Cl)cc2)=C(C#N)C12CCCCC2
- EC50 [1]: 6.43 µM (active)
- EC50 [2]: 8.84 µM (active)

SMILES: CCC(=O)N1CCN(c2ccc(NC(=O)c3cccs3)cc2)CC1
- AC50 (Cytochrome P450 2C19): 0.501 µM (inconclusive)
- AC50 (Cytochrome P450 3A4): inconclusive
- AC50 (Cytochrome P450 2C9): inconclusive

SMILES: COc1cc(CNc2ccc3[nH]c(=O)[nH]c3c2)ccc1OCC(=O)NC(C)(C)C
- IC50 [3]: > 50 µM (not active)
- EC50 [4]: > 112 µM (not active)

SMILES: O=C(OC1CCN(c2ncc(C(F)(F)F)cc2Cl)CC1)c1ccccc1
- AC50 (Cytochrome P450 3A4): inconclusive

SMILES: CCOC(=O)c1ccccc1NC(=O)C1COc2ccccc2O1 (stereo unspecified)
- CC50 [5]: > 40 µM (active)

SMILES: Cc1ccc(NC2=C(Cl)C(=O)N(c3ccc(C)cc3)C2=O)cc1
- IC50 (Bcl-2-related protein A1 [6]): 1.7 µM (active)
- IC50 (Bcl-2-related protein A1 [7]): 2.54 µM (active)
- IC50 [8]: > 100 µM (not active)

SMILES: CN(C)S(=O)(=O)c1ccc(C(=O)Nc2nc(-c3cccs3)cs2)cc1
- AC50 [9]: 67.7 µM (active)
- EC50 [10]: 102 µM (active)
- EC50 [11]: 79.7 µM (active)
- AC50 [12]: 9.43 µM (active)
- AC50 [13]: > 70 µM (inactive)
- AC50 [14]: 0.879 µM (active)

SMILES: COC(=O)c1ccc(CSc2nnc(-c3ccncc3)o2)o1
- IC50 [15]: 11 µM (inactive)
- IC50 (cells): 39.6 µM (active)

SMILES: CCCCN1C(=O)N(C)C2NC(=O)NC21 (stereo unspecified)
- IC50 [15]: 3 µM (active)

SMILES: CCOC(=O)C1=C(N)n2c(s/c(=C/c3ccco3)c2=O)=C(C(=O)OC)C1c1ccco1 (stereo unspecified)
- CC50 [16]: > 40 µM (active)

SMILES: C[C@H](CO)N1C[C@H](C)[C@H](CN(C)C(=O)Nc2ccc3c(c2)OCO3)Oc2ncc(-c3cccc(C(F)(F)F)c3)cc2C1=O
- AC50 [17]: 14.1 µM (active)

SMILES: COc1ccc(C#Cc2ccc([C@@H]3[C@@H](CO)N4CCCCN(C(=O)Nc5ccccc5)C[C@H]34)cc2)cc1
- AC50 [18]: 1.29 µM (active)
- AC50 [17]: 6.46 µM (active)
- AC50 [19]: 11.4 µM (active)

SMILES: Cc1ccccc1S(=O)(=O)N1[C@H](C#N)[C@H](c2ccc(C#CC3CCCCC3)cc2)[C@H]1CO
- AC50 [20]: 10.7 µM (active)
- AC50 [21]: 13 µM (active)

SMILES: CCN(CC)c1ccc(/C=N/N2C(C)CCCC2C)c(O)c1 (stereo unspecified)
- AC50 [9]: 48.3 µM (active)
- AC50 [13]: > 70 µM (inactive)
- AC50 [22]: 2.22 µM (active)
